Laboratory results: the supplement of paper PMC10307832

Legend:
Assay in all cases: relative viability (nuclei count vs DMSO), 5 days (fraction); higher = more cells survive
CAL-12T = test system: CAL-12T
Method in brief: (§1)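 The day after seeding in 1536-well plates, lung cancer cell lines were treated by pin tool with a single drug, or with a fixed anchor-drug dose together with five library-drug doses (not always all listed) in √10 steps. After 5 days, a combined fix-and-stain solution (final 0.05% Triton X-100, 1% formaldehyde, 1 ug/ml Hoechst) was added. Nuclei counted on 4× images gave relative viability as treated counts over vehicle counts, reported as the median of duplicate plates.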

EKVX = test system: EKVX
Method in brief: as §1

H3255 = test system: H3255
Method in brief: as §1

HCC-15 = test system: HCC-15
Method in brief: as §1

HCC-827 = test system: HCC-827
Method in brief: as §1

LCLC-97TM1 = test system: LCLC-97TM1
Method in brief: as §1

LK-2 = test system: LK-2
Method in brief: as §1

NCI-H1355 = test system: NCI-H1355
Method in brief: as §1

NCI-H1650 = test system: NCI-H1650
Method in brief: as §1

NCI-H1734 = test system: NCI-H1734
Method in brief: as §1

NCI-H1755 = test system: NCI-H1755
Method in brief: as §1

NCI-H1975 = test system: NCI-H1975
Method in brief: as §1

NCI-H2228 = test system: NCI-H2228
Method in brief: as §1

NCI-H2342 = test system: NCI-H2342
Method in brief: as §1

NCI-H2405 = test system: NCI-H2405
Method in brief: as §1

NCI-H322M = test system: NCI-H322M
Method in brief: as §1

NCI-H520 = test system: NCI-H520
Method in brief: as §1

NCI-H661 = test system: NCI-H661
Method in brief: as §1

PC-14 = test system: PC-14
Method in brief: as §1

PC-3 [JPC-3] = test system: PC-3 [JPC-3]
Method in brief: as §1

RERF-LC-KJ = test system: RERF-LC-KJ
Method in brief: as §1

Nc1ccn([C@@H]2O[C@H](CO)[C@@H](O)[C@@H]2O)c(=O)n1 [Cytarabine] + O=C(CCCCCCC(=O)Nc1ccccc1)NO [Vorinostat] (partner 1 µM)
relative viability (CAL-12T; first compound 0.005 µM): 0.53
relative viability (CAL-12T; first compound 0.01581 µM): 0.68
relative viability (CAL-12T; first compound 0.05 µM): 0.739
relative viability (CAL-12T; first compound 0.1581 µM): 0.477
relative viability (CAL-12T; first compound 0.5 µM): 0.27
relative viability (EKVX; first compound 0.005 µM): 0.706
relative viability (EKVX; first compound 0.01581 µM): 0.7
relative viability (EKVX; first compound 0.05 µM): 0.636
relative viability (EKVX; first compound 0.1581 µM): 0.494
relative viability (EKVX; first compound 0.5 µM): 0.414
relative viability (H3255; first compound 0.005 µM): 0.862
relative viability (H3255; first compound 0.01581 µM): 0.853
relative viability (H3255; first compound 0.05 µM): 0.655
relative viability (H3255; first compound 0.1581 µM): 0.608
relative viability (H3255; first compound 0.5 µM): 0.878
relative viability (HCC-15; first compound 0.005 µM): 0.856
relative viability (HCC-15; first compound 0.01581 µM): 0.784
relative viability (HCC-15; first compound 0.05 µM): 0.775
relative viability (HCC-15; first compound 0.1581 µM): 0.676
relative viability (HCC-15; first compound 0.5 µM): 0.647
relative viability (HCC-827; first compound 0.005 µM): 0.539
relative viability (HCC-827; first compound 0.01581 µM): 0.331
relative viability (HCC-827; first compound 0.05 µM): 0.169
relative viability (HCC-827; first compound 0.1581 µM): 0.145
relative viability (HCC-827; first compound 0.5 µM): 0.141
relative viability (LCLC-97TM1; first compound 0.005 µM): 0.752
relative viability (LCLC-97TM1; first compound 0.01581 µM): 0.562
relative viability (LCLC-97TM1; first compound 0.05 µM): 0.166
relative viability (LCLC-97TM1; first compound 0.1581 µM): 0.275
relative viability (LCLC-97TM1; first compound 0.5 µM): 0.102
relative viability (LK-2; first compound 0.005 µM): 0.244
relative viability (LK-2; first compound 0.01581 µM): 0.29
relative viability (LK-2; first compound 0.05 µM): 0.242
relative viability (LK-2; first compound 0.1581 µM): 0.143
relative viability (LK-2; first compound 0.5 µM): 0.119
relative viability (NCI-H1355; first compound 0.005 µM): 0.578
relative viability (NCI-H1355; first compound 0.01581 µM): 0.638
relative viability (NCI-H1355; first compound 0.05 µM): 0.64
relative viability (NCI-H1355; first compound 0.1581 µM): 0.458
relative viability (NCI-H1355; first compound 0.5 µM): 0.299
relative viability (NCI-H1650; first compound 0.005 µM): 0.563
relative viability (NCI-H1650; first compound 0.01581 µM): 0.514
relative viability (NCI-H1650; first compound 0.05 µM): 0.261
relative viability (NCI-H1650; first compound 0.1581 µM): 0.241
relative viability (NCI-H1650; first compound 0.5 µM): 0.226
relative viability (NCI-H1734; first compound 0.005 µM): 0.493
relative viability (NCI-H1734; first compound 0.01581 µM): 0.361
relative viability (NCI-H1734; first compound 0.05 µM): 0.317
relative viability (NCI-H1734; first compound 0.1581 µM): 0.138
relative viability (NCI-H1734; first compound 0.5 µM): 0.125
relative viability (NCI-H1755; first compound 0.005 µM): 0.823
relative viability (NCI-H1755; first compound 0.01581 µM): 0.794
relative viability (NCI-H1755; first compound 0.05 µM): 0.685
relative viability (NCI-H1755; first compound 0.1581 µM): 0.502
relative viability (NCI-H1755; first compound 0.5 µM): 0.375
relative viability (NCI-H1975; first compound 0.005 µM): 0.572
relative viability (NCI-H1975; first compound 0.01581 µM): 0.675
relative viability (NCI-H1975; first compound 0.05 µM): 0.568
relative viability (NCI-H1975; first compound 0.1581 µM): 0.429
relative viability (NCI-H1975; first compound 0.5 µM): 0.287
relative viability (NCI-H2228; first compound 0.005 µM): 0.472
relative viability (NCI-H2228; first compound 0.01581 µM): 0.275
relative viability (NCI-H2228; first compound 0.05 µM): 0.197
relative viability (NCI-H2228; first compound 0.1581 µM): 0.106
relative viability (NCI-H2228; first compound 0.5 µM): 0.0947
relative viability (NCI-H2342; first compound 0.005 µM): 0.718
relative viability (NCI-H2342; first compound 0.01581 µM): 0.698
relative viability (NCI-H2342; first compound 0.05 µM): 0.657
relative viability (NCI-H2342; first compound 0.1581 µM): 0.52
relative viability (NCI-H2342; first compound 0.5 µM): 0.465
relative viability (NCI-H2405; first compound 0.005 µM): 1.02
relative viability (NCI-H2405; first compound 0.01581 µM): 0.748
relative viability (NCI-H2405; first compound 0.05 µM): 0.624
relative viability (NCI-H2405; first compound 0.1581 µM): 0.43
relative viability (NCI-H2405; first compound 0.5 µM): 0.374
relative viability (NCI-H322M; first compound 0.005 µM): 0.804
relative viability (NCI-H322M; first compound 0.01581 µM): 0.785
relative viability (NCI-H322M; first compound 0.05 µM): 0.641
relative viability (NCI-H322M; first compound 0.1581 µM): 0.589
relative viability (NCI-H322M; first compound 0.5 µM): 0.426
relative viability (NCI-H520; first compound 0.005 µM): 0.636
relative viability (NCI-H520; first compound 0.01581 µM): 0.668
relative viability (NCI-H520; first compound 0.05 µM): 0.776
relative viability (NCI-H520; first compound 0.1581 µM): 0.555
relative viability (NCI-H520; first compound 0.5 µM): 0.502
relative viability (NCI-H661; first compound 0.005 µM): 0.751
relative viability (NCI-H661; first compound 0.01581 µM): 0.698
relative viability (NCI-H661; first compound 0.05 µM): 0.6
relative viability (NCI-H661; first compound 0.1581 µM): 0.513
relative viability (NCI-H661; first compound 0.5 µM): 0.456
relative viability (PC-14; first compound 0.005 µM): 0.519
relative viability (PC-14; first compound 0.01581 µM): 0.601
relative viability (PC-14; first compound 0.05 µM): 0.617
relative viability (PC-14; first compound 0.1581 µM): 0.154
relative viability (PC-14; first compound 0.5 µM): 0.082
relative viability (PC-3 [JPC-3]; first compound 0.005 µM): 0.78
relative viability (PC-3 [JPC-3]; first compound 0.01581 µM): 0.775
relative viability (PC-3 [JPC-3]; first compound 0.05 µM): 0.546
relative viability (PC-3 [JPC-3]; first compound 0.1581 µM): 0.466
relative viability (PC-3 [JPC-3]; first compound 0.5 µM): 0.592
relative viability (RERF-LC-KJ; first compound 0.005 µM): 0.569
relative viability (RERF-LC-KJ; first compound 0.01581 µM): 0.66
relative viability (RERF-LC-KJ; first compound 0.05 µM): 0.513
relative viability (RERF-LC-KJ; first compound 0.1581 µM): 0.474
relative viability (RERF-LC-KJ; first compound 0.5 µM): 0.393
